Reference: ChEMBL document CHEMBL5233260, “Diverse chemical space of indoleamine-2,3-dioxygenase 1 (Ido1) inhibitors” (Eur J Med Chem, 2021)
pEC50, pIC50, pKi: −log10 of the molar value. Where “and” joins values, the source holds several entries; their conditions need not be identical. Identical values can stand only once. Each block holds one compound with its values, some of them ahead of it.

Tests used:
[1] = target: T1, Indoleamine 2,3-dioxygenase 1 (Homo sapiens, UniProt P14902); test: Inhibition of human IDO1 using L-tryptophan as substrate by methylene blue dye based spectrometric method
Target sequence in this assay (P14902 whole entry): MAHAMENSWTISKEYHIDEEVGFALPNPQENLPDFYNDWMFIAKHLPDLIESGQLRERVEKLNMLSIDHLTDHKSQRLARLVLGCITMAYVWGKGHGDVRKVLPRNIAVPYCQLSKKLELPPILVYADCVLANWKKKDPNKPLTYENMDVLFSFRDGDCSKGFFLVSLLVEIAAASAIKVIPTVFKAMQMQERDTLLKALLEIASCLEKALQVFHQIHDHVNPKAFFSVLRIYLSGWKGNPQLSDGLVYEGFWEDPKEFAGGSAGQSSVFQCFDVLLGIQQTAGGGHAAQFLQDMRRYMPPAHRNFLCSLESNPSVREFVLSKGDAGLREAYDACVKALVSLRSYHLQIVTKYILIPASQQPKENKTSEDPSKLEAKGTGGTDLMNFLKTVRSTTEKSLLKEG

[2] = target: T1, Indoleamine 2,3-dioxygenase 1; test: Binding affinity to IDO1 (unknown origin) assessed as inhibition constant
Target sequence in this assay (P14902 whole entry): as above

[3] = target: T1, Indoleamine 2,3-dioxygenase 1; test: Inhibition of human IDO1 expressed in Escherichia coli using L-tryptophan as substrate incubated for 30 mins by methylene blue dye based microplate reader analysis
Target sequence in this assay (P14902 whole entry): as above

[4] = target: T2, Indoleamine 2,3-dioxygenase 1 (Mus musculus, UniProt P28776); test: Inhibition of IDO1 in mouse LLTC cell line; format: cell-based
T2 sequence (P28776 whole entry): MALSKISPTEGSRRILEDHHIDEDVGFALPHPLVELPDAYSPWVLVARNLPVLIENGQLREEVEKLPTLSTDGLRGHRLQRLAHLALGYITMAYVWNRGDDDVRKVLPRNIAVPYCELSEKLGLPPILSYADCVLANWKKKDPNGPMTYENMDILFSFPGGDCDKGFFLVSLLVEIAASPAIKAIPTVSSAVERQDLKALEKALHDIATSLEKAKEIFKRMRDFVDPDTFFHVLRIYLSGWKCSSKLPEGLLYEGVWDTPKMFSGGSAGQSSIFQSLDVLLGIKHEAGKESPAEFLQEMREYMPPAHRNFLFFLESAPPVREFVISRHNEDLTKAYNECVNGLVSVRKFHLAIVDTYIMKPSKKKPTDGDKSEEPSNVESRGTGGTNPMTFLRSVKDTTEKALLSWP

[5] = target: T1, Indoleamine 2,3-dioxygenase 1; test: Inhibition of IDO1 in human HeLa cells; format: cell-based
Target sequence in this assay (P14902 whole entry): as the sequence (P14902 whole entry) above

[6] = target: T1, Indoleamine 2,3-dioxygenase 1; test: Inhibition of human IDO1
Target sequence in this assay (P14902 whole entry): as above

[7] = target: T1, Indoleamine 2,3-dioxygenase 1; test: Inhibition of human IDO1 using L-tryptophan as substrate incubated for 1 hr by absorbance based analysis
Target sequence in this assay (P14902 whole entry): as above

[8] = target: T2, Indoleamine 2,3-dioxygenase 1; test: Inhibition of mouse IDO1 using L-tryptophan as substrate by methylene blue dye based analysis
[9] = target: T1, Indoleamine 2,3-dioxygenase 1; test: Inhibition of IDO1 in HEK293 cells at 20 uM incubated for 24 hrs by LC-MS/MS analysis relative to control; format: cell-based
Target sequence in this assay (P14902 whole entry, looked up): as the sequence (P14902 whole entry) above

[10] = target: T1, Indoleamine 2,3-dioxygenase 1; test: Inhibition of IDO1 in human A549 cells by ELISA assay; format: cell-based
[11] = target: T1, Indoleamine 2,3-dioxygenase 1; test: Inhibition of IDO1 (unknown origin)
[12] = target: T1, Indoleamine 2,3-dioxygenase 1; test: Inhibition of human recombinant IDO1 using L-tryptophan as substrate incubated for 10 mins by absorbance based analysis
[13] = target: T1, Indoleamine 2,3-dioxygenase 1; test: Inhibition of IDO1 (unknown origin) at 1 uM relative to control
Target sequence in this assay (P14902 whole entry, looked up): as the sequence (P14902 whole entry) above

[14] = target: T1, Indoleamine 2,3-dioxygenase 1; test: Inhibition of IDO1 (unknown origin) at 1 mM relative to control
Target sequence in this assay (P14902 whole entry, looked up): as the sequence (P14902 whole entry) above

[15] = target: T1, Indoleamine 2,3-dioxygenase 1; test: Inhibition of IDO1 in human MDA-MB-231 cells; format: cell-based
[16] = target: T1, Indoleamine 2,3-dioxygenase 1; test: Inhibition of human recombinant N-terminal his6-tagged IDO1 expressed in Escherichia coli BL21 using L-tryptophan as substrate incubated for 1 hr by methylene blue dye based UV-Vis spectrophotometer analysis
[17] = target: T1, Indoleamine 2,3-dioxygenase 1; test: Inhibition of IDO1 (unknown origin) at 10 uM relative to control
Target sequence in this assay (P14902 whole entry, looked up): as the sequence (P14902 whole entry) above

[18] = target: T1, Indoleamine 2,3-dioxygenase 1; test: Inhibition of IDO1 in human HeLa cells assessed as inhibition of kynurenine production incubated for 30 mins by microplate reader based analysis; format: cell-based
[19] = target: T1, Indoleamine 2,3-dioxygenase 1; test: Inhibition of human IDO1 incubated for 30 mins by microplate reader based analysis

pIC50 [1]: 6.14
SMILES: O=C(NNc1ccccc1)c1n[nH]c2ccccc12

pKi [2]: 7.07
SMILES: CC12CCCc3coc(c31)C(=O)c1cc3c(cc12)C(=O)C1NCCS(=O)(=O)C1C3=O (configuration not stated)

pIC50 [1]: 5.02
SMILES: c1cncc(-c2n[nH]c3ccccc23)c1

pIC50 [1]: 4.77
SMILES: Cc1ccc(S(=O)(=O)NNC(=O)c2n[nH]c3ccccc23)cc1

pIC50 [3]: 6.00
SMILES: COC1=CC(=O)c2sc(C)c(CO)c2C1=O

pIC50 [4]: 5.22
SMILES: COc1cccc2c1C(=O)C1=C(C[C@H](Cn3cc(-c4ccccc4)nn3)O[C@@H]1C)C2=O

pIC50 [1]: 5.26
SMILES: Clc1ccc(-c2n[nH]c3ccccc23)cc1Cl

pIC50 [3]: 6.00
SMILES: COC1=CC(=O)c2c(c(CO)nn2C)C1=O

pKi [2]: 5.15
SMILES: NC(Cc1csc2ccccc12)C(=O)O (configuration not stated)

pEC50 [5]: 7.29 | pIC50 [6]: 6.70
SMILES: N#Cc1ccc(NC(=O)Nc2ccc(S(=O)(=O)NNc3ccc(Br)cc3)cc2)cc1

pIC50 [7]: 6.09
SMILES: O=C(NC(c1cccc(Br)c1)n1ccnc1)c1ccc([N+](=O)[O-])cc1 (configuration not stated)

pIC50 [8]: < 4.18
SMILES: COc1ccc(Nc2ccc3c[n+]4ccccc4cc3c2)cc1

inhibition [9]: 80%
SMILES: O/N=C(\Nc1ccc(F)c(Br)c1)c1cccc2cn[nH]c12

pIC50 [10]: 6.13
SMILES: CC(=O)NCCc1c(C(=O)c2ccccc2[N+](=O)[O-])[nH]c2ccc(Cl)cc12

pIC50 [4]: 6.10
SMILES: COc1ccc2c(c1)C(=O)C1=C(C2=O)[C@@H](C)O[C@@H](CC(=O)O)C1

SMILES: CC12CCCc3coc(c31)C(=O)c1cc3c(cc12)C(=O)C1C(NCCS1(=O)=O)C3=O (configuration not stated)
pKi [2]: 7.60

pKi [2]: 6.85
SMILES: CCc1cc2c(cc1C)C(=O)C1=C(C2=O)C(OC)(C(=O)OC)OC1(C)C (configuration not stated)

pIC50 [8]: 6.28
SMILES: Fc1ccc(Nc2ccc3c[n+]4ccccc4cc3c2)cc1

pIC50 [11]: 4.49
SMILES: COC1=CC(=O)c2c(O)c3c(c4c2[C@]12CC(=O)C[C@H]2[C@@]1(C[C@H](O)[C@H](O)CO1)O4)C[C@](C)(O)[C@H](O)C3

pIC50 [8]: < 4.30
SMILES: CN(C)c1ccc(Nc2ccc3c[n+]4ccccc4cc3c2)cc1

pIC50 [11]: 4.13
SMILES: Brc1cc(Nc2ccc3nonc3c2)c2cn[nH]c2c1

pIC50 [11]: 6.22
SMILES: COC1=C(OC)C(=O)C(Nc2ccccc2)=CC1=O

pIC50 [8]: 4.77
SMILES: Cc1ccc(Nc2ccc3c[n+]4ccccc4cc3c2)cc1

pKi [2]: 4.15
SMILES: NC(Cc1coc2ccccc12)C(=O)O (configuration not stated)

pIC50 [11]: 6.30
SMILES: COC(=O)[C@H]1CCCN1C[C@@H](O)c1c(OC)cc2c(c1O)C(=O)c1cc(O)c(C)cc1C2=O

pIC50 [3]: 6.30
SMILES: COC1=CC(=O)c2c(oc(C)c2CO)C1=O

pIC50 [11]: 6.40
SMILES: COC1=C(OC)C(=O)C(Nc2cccc(NC(=O)Nc3ccccc3)c2)=C(C)C1=O

pIC50 [11]: 3.80
SMILES: C=C1CC[C@@H]2[C@](C)(CO)[C@H](O)CC[C@@]2(C)[C@@H]1C/C=C1/C(=O)OC[C@H]1O [ANDROGRAPHOLIDE]

pIC50 [8]: 6.29
SMILES: Clc1ccc(Nc2ccc3c[n+]4ccccc4cc3c2)cc1

pIC50 [12]: 7.15
SMILES: COc1nsc2c1C(=O)c1c(O)cccc1C2=O

inhibition [13]: 75%
SMILES: N#Cc1ccc(Cc2cn(Cc3cnc4scc(-c5ccc(Br)cc5)n34)nn2)cc1

pIC50 [11]: 6.15
SMILES: COC1=C(OC)C(=O)C(Nc2ccccc2)=C(C)C1=O

inhibition [14]: 30%
SMILES: O=C(O)C[C@H]1CNC(=O)c2cc(Br)c(Br)n21

pIC50 [11]: 5.00
SMILES: CNC(=O)[C@H]1[C@@H](OC)C2(O)c3ccccc3NC(=O)[C@@]2(C(=O)N[C@@H](CCC(=O)OC)C(=O)C=C(C)C)N1C (some centres not stated)

inhibition [13]: 70%
SMILES: O=C(NCc1cnc2scc(-c3ccc(Br)cc3)n12)n1cc(C2CC2)nn1

pIC50 [15]: 7.55 | pIC50 [16]: 7.04 and 7.55
SMILES: NS(=O)(=O)NCCNC(=O)c1n[nH]nc1/C(=N/O)Nc1ccc(F)c(Br)c1

pIC50 [11]: 5.70
SMILES: CS[C@@]1(C)C(=O)N2[C@H]3N(c4ccc5oc6cc(=O)c(N)c(C(=O)O)c-6nc5c4C(=O)O)c4ccccc4[C@@]3(c3c[nH]c4ccccc34)[C@H](O)[C@]2(SC)C(=O)N1C

pIC50 [3]: 7.00
SMILES: COC1=CC(=O)c2c(nc(COc3ccc([N+](=O)[O-])cc3)n2C)C1=O

pIC50 [11]: 5.55
SMILES: COC1=C(OC)C(=O)C(CCC(C)C)=C(C)C1=O

pIC50 [11]: 5.20
SMILES: CCc1c(OC)cc2c(c1O)C(=O)C[C@@H](OC)[C@@H]2O

pIC50 [3]: 5.14
SMILES: COC(=O)c1c(C)oc2c1C(=O)C(OC)=CC2=O

inhibition [17]: > 70%
SMILES: O[C@H]1CCCC[C@@H]1CNc1cc(Br)cc2[nH]ncc12

pIC50 [11]: > 6.70
SMILES: Nc1oc2cnccc2c1Nc1ccc(F)c(Cl)c1

pIC50 [11]: > 6.00
SMILES: O=C(Cc1ccccc1)Nc1ccc(CCOc2ccccc2-c2cnc[nH]2)cc1

pIC50 [18]: > 6.00
SMILES: Cc1cc(Cl)nc2onc(N)c12

pIC50 [8]: 4.40
SMILES: Clc1cccc(Nc2ccc3c[n+]4ccccc4cc3c2)c1

pIC50 [19]: 5.30
SMILES: COc1cc(O)c2c(c1)C(=O)C1=C(C2=O)[C@@H](C)O[C@@H](C)C1

pIC50 [1]: 4.71
SMILES: c1ccc(-c2[nH]nc3ccccc23)cc1

pIC50 [8]: 6.25
SMILES: c1ccc(Nc2ccc3c[n+]4ccccc4cc3c2)cc1

pIC50 [11]: 5.93
SMILES: COc1c(C(C)=O)c(C)cc2cc3c(c(O)c12)C(=O)C(C)(C)C(=O)C3(C)C

pIC50 [11]: 6.57
SMILES: COC1=C(OC)C(=O)C(Nc2ccc(Cl)cc2)=CC1=O

pIC50 [18]: 7.00
SMILES: CCN(c1ncc(C2(C(=O)O)CCC2)cc1Nc1ccc(Cl)cc1)C1CCOCC1

pIC50 [3]: 5.00
SMILES: COC1=CC(=O)c2c(c(CO)c(C)n2C)C1=O

pKi [2]: 6.68
SMILES: CCc1c(C)cc2c(c1O)C(=O)C1=C(C2=O)C(C)(C)OC1(O)C(=O)OC (configuration not stated)

pKi [2]: 5.70
SMILES: COC(=O)/C1=C/c2c([nH]c3ccccc23)/C(C(=O)OC)=C\c2c1[nH]c1ccccc21 [CAULERPIN]
